Results from publication PMC11270571 (ACS Omega, 2024).
Entries after “also recorded” stand apart in the source; their conditions may differ.

Assays:
human BuChE = human BuChE (Homo sapiens, UniProt P06276); assay: biochemical; details: for inhibition at 100 µM / inhibition at 1000 µM: read-out: human BuChE inhibition%
human AChE = human AChE (Homo sapiens, UniProt P22303); assay: AChE inhibition, modified Ellman spectrophotometric method; format: biochemical; details: for inhibition at 100 µM / inhibition at 1000 µM / inhibition at 0.001 µM / inhibition at 0.01 µM / inhibition at 0.1 µM / inhibition at 1 µM / inhibition at 10 µM: read-out: human AChE inhibition %
[1] = In vitro BBB permeability assay; format: in vitro ADME; details: PAMPA; for type of BBB permeation: class by Pe

Sequence of human AChE (P22303 32-614): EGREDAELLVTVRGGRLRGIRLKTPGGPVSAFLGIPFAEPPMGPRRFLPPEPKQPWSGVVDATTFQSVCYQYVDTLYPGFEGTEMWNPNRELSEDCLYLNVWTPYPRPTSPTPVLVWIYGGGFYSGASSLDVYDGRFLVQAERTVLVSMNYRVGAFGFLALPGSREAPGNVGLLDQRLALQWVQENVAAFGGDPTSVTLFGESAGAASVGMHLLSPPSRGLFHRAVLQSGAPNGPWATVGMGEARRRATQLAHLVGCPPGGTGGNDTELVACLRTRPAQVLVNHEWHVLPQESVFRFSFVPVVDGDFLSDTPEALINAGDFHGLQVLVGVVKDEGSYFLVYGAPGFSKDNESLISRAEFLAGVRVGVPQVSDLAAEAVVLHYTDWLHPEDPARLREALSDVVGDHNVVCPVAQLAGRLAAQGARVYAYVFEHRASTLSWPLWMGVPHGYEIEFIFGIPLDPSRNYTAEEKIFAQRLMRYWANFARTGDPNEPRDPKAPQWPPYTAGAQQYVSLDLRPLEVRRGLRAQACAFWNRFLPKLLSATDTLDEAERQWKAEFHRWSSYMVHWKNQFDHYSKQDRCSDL
Sequence of human BuChE (P06276 29-602): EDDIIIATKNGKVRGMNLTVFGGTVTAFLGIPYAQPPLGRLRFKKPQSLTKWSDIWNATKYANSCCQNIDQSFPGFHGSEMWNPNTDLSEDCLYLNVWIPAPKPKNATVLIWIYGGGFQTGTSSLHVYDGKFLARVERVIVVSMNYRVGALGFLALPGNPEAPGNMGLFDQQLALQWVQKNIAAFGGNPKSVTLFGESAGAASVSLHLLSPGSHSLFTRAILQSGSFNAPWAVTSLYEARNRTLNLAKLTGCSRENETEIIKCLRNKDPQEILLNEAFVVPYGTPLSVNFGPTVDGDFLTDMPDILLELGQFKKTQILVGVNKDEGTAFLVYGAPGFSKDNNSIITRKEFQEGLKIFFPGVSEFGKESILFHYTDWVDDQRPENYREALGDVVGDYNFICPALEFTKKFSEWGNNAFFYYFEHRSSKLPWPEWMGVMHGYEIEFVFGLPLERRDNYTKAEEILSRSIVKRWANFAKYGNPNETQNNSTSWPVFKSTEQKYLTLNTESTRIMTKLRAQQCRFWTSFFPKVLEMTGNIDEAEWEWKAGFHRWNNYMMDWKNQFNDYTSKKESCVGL

SMILES	IC50 (human BuChE) [µM]	inhibition at 100 µM (human BuChE) [%]	inhibition at 1000 µM (human BuChE) [%]	IC50 (human AChE) [µM]	inhibition at 100 µM (human AChE) [%]	inhibition at 1000 µM (human AChE) [%]	BBB permeability (in words) [1]	type of BBB permeation [1]	inhibition at 0.001 µM (human AChE) [%]	inhibition at 0.01 µM (human AChE) [%]	inhibition at 0.1 µM (human AChE) [%]	inhibition at 1 µM (human AChE) [%]	inhibition at 10 µM (human AChE) [%]
O=C(C=Cc1ccc(N2CCOCC2)cc1)c1ccsc1 [Compound 1, 3-(4-Morpholinophenyl)-1-(thiophen-3-yl)prop-2-en-1-one]	> 1000	21.3 ± 0.84	46.6 ± 0.92	> 100	41.1 ± 1.87	78.3 ± 2.1	–	–	–	–	–	–	–
c1ccc(N2N=C(c3ccsc3)CC2c2ccc(N3CCOCC3)cc2)cc1 (centres unmarked) [Compound 2a, 1-Phenyl-3-(thiophen-3-yl)-5-[4-(4-morpholinyl)phenyl]-2-pyrazoline]	> 1000	18.1 ± 0.76	31.1 ± 0.84	0.107 ± 0.0048	88.6 ± 2.06	91.4 ± 2.46	high BBB permeability	CNS+ high BBB permeation (high BBB permeation Pe (10^–6 cm s^–1) > 4.0)	14.7 ± 0.66	20.3 ± 0.99	49.7 ± 1.74	82.5 ± 1.91	84.8 ± 1.8
CS(=O)(=O)c1ccc(N2N=C(c3ccsc3)CC2c2ccc(N3CCOCC3)cc2)cc1 (centres unmarked) [Compound 2b, 1-(4-Methylsulfonylphenyl)-3-(thiophen-3-yl)-5-[4-(4-morpholinyl)phenyl]-2-pyrazoline]	> 1000	15.1 ± 0.78	26.4 ± 0.75	> 1000	23.1 ± 0.95	40.6 ± 1.76	–	–	–	–	–	–	–
Cc1ccc(N2N=C(c3ccsc3)CC2c2ccc(N3CCOCC3)cc2)cc1 (centres unmarked) [Compound 2c, 1-(4-Methylphenyl)-3-(thiophen-3-yl)-5-[4-(4-morpholinyl)phenyl]-2-pyrazoline]	> 1000	20.6 ± 0.82	29.3 ± 0.99	> 100	38.7 ± 1.34	73.6 ± 2.06	–	–	–	–	–	–	–
COc1ccc(N2N=C(c3ccsc3)CC2c2ccc(N3CCOCC3)cc2)cc1 (centres unmarked) [Compound 2d, 1-(4-Methoxyphenyl)-3-(thiophen-3-yl)-5-[4-(4-morpholinyl)phenyl]-2-pyrazoline]	> 1000	21.1 ± 0.86	33.1 ± 0.99	> 100	44.2 ± 1.24	84.5 ± 2.36	–	–	–	–	–	–	–
N#Cc1ccc(N2N=C(c3ccsc3)CC2c2ccc(N3CCOCC3)cc2)cc1 (centres unmarked) [Compound 2e, 1-(4-Cyanophenyl)-3-(thiophen-3-yl)-5-[4-(4-morpholinyl)phenyl]-2-pyrazoline]	> 1000	23.4 ± 1.06	38.9 ± 1.22	> 100	47.6 ± 1.85	81.2 ± 1.91	–	–	–	–	–	–	–
Fc1ccc(N2N=C(c3ccsc3)CC2c2ccc(N3CCOCC3)cc2)cc1 (centres unmarked) [Compound 2f, 1-(4-Fluorophenyl)-3-(thiophen-3-yl)-5-[4-(4-morpholinyl)phenyl]-2-pyrazoline]	> 1000	21.9 ± 0.89	31.5 ± 1.15	> 100	45.4 ± 1.99	71.4 ± 2.46	–	–	–	–	–	–	–
Clc1ccc(N2N=C(c3ccsc3)CC2c2ccc(N3CCOCC3)cc2)cc1 (centres unmarked) [Compound 2g, 1-(4-Chlorophenyl)-3-(thiophen-3-yl)-5-[4-(4-morpholinyl)phenyl]-2-pyrazoline]	> 1000	20.8 ± 0.93	25 ± 0.96	0.122 ± 0.0051	86.6 ± 2.56	90.7 ± 1.15	–	CNS ± uncertain BBB permeation	15.6 ± 0.73	23.1 ± 1.06	47.9 ± 0.96	79.5 ± 1.57	82.4 ± 2.17
Brc1ccc(N2N=C(c3ccsc3)CC2c2ccc(N3CCOCC3)cc2)cc1 (centres unmarked) [Compound 2h, 1-(4-Bromophenyl)-3-(thiophen-3-yl)-5-[4-(4-morpholinyl)phenyl]-2-pyrazoline]	> 1000	26.2 ± 1.25	40.8 ± 1.94	> 1000	20.9 ± 0.83	46.5 ± 1.94	–	–	–	–	–	–	–
Fc1cccc(N2N=C(c3ccsc3)CC2c2ccc(N3CCOCC3)cc2)c1 (centres unmarked) [Compound 2i, 1-(3-Fluorophenyl)-3-(thiophen-3-yl)-5-[4-(4-morpholinyl)phenyl]-2-pyrazoline]	> 1000	27.4 ± 1.38	36.2 ± 1.42	> 100	37.6 ± 1.51	68.3 ± 2.15	–	–	–	–	–	–	–
Clc1cccc(N2N=C(c3ccsc3)CC2c2ccc(N3CCOCC3)cc2)c1 (centres unmarked) [Compound 2j, 1-(3-Chlorophenyl)-3-(thiophen-3-yl)-5-[4-(4-morpholinyl)phenyl]-2-pyrazoline]	> 1000	24.9 ± 0.97	34.3 ± 1.55	0.062 ± 0.003	89.5 ± 1.85	93.1 ± 2.85	–	CNS ± uncertain BBB permeation	19 ± 0.63	36.2 ± 0.98	60.8 ± 1.64	72 ± 1.78	80.2 ± 2.16
Brc1cccc(N2N=C(c3ccsc3)CC2c2ccc(N3CCOCC3)cc2)c1 (centres unmarked) [Compound 2k, 1-(3-Bromophenyl)-3-(thiophen-3-yl)-5-[4-(4-morpholinyl)phenyl]-2-pyrazoline]	> 1000	17.6 ± 0.81	29 ± 1.09	> 1000	30.3 ± 1.03	45.8 ± 1.72	–	–	–	–	–	–	–
O=[N+]([O-])c1cccc(N2N=C(c3ccsc3)CC2c2ccc(N3CCOCC3)cc2)c1 (centres unmarked) [Compound 2l, 1-(3-Nitrophenyl)-3-(thiophen-3-yl)-5-[4-(4-morpholinyl)phenyl]-2-pyrazoline]	> 1000	19.3 ± 0.82	30.5 ± 0.97	0.04 ± 0.0019	91.7 ± 1.92	95.3 ± 2.03	high blood–brain barrier permeability; also recorded: high BBB permeability	CNS+ high BBB permeation (high BBB permeation Pe (10^–6 cm s^–1) > 4.0)	19.3 ± 0.75	42.2 ± 1.52	64.6 ± 1.85	75.4 ± 1.03	82.6 ± 1.51
